From paper PMC10455244, “Alpha-Mangostin: A Potent Inhibitor of TRPV3 and Pro-Inflammatory Cytokine Secretion in Keratinocytes” (International Journal of Molecular Sciences, 2023)

What was measured:
TRPV3 = conditions: read-out: IC50 (µM), channel inhibited TRPV3; cited from earlier work
TRPA1 = biological target: T1, TRPA1 (Homo sapiens, UniProt O75762); conditions: read-out: IC50 (µM), channel inhibited TRPA1; cited from earlier work
T1 construct: host or cells: HEK 293T (transient transfection)

TRPV1 = conditions: read-out: IC50 (µM), channel inhibited TRPV1; cited from earlier work
TRPV2 = test system: TRPV2; design: method as in PMID 28333079; conditions: read-out: IC50 (µM), channel inhibited TRPV2; cited from earlier work
TRPV3 (WT) = test: in vitro; format: cell-based, human; conditions: human
TNF-α = test: ELISA, TNF-α release in NHEK; format: cell-based, human; conditions: 300 µM carvacrol alone, 24 h
Description: (§1) Constitutive activation of TRPV3 due to continuous stimulation or the presence of Olmsted mutations causes noticeable skin inflammation due to the increased secretion of pro-inflammatory cytokines from the keratinocytes. Besides, in atopic dermatitis (AD), cytokine release from keratinocytes contributes to the inflammatory environment, which drives many characteristic AD symptoms. Therefore, we determined the effect of TRPV3 activation on cytokine release instead of TRPV3 expression and evaluated whether alpha-mangostin suppressed TRPV3-mediated cytokine secretion in normal human keratinocytes. The levels of secreted cytokines (interleukin (IL)-6, IL-8, and tumor necrosis factor-alpha (TNF-α)) were measured using enzyme-linked Immunosorbent assay (ELISA) kits due to their high sensitivity and quantitation ability. The cells were induced with 300 µM carvacrol, with or without 1 µM alpha-mangostin, and 10 µM 74a.
(§2) Figure 5 Alpha-mangostin (α-MG) inhibited carvacrol-induced cytokine release in NHEK cells and rescued carvacrol-induced cell death. (A) Alpha-mangostin inhibited the carvacrol-induced release of IL-8 and IL-6 in NHEK. Cells were induced by 300 µM carvacrol with or without either 1 µM alpha-mangostin or 10 µM 74a for 24 h before the ELISA assay. (B) Alpha-mangostin reduced cell death caused by carvacrol in human keratinocytes. […]

IL-8 = test: ELISA, carvacrol-induced IL-8 release in NHEK; format: cell-based, human; conditions: 300 µM carvacrol alone, 24 h
Description: as §1, §2

IL-6 = test: ELISA, carvacrol-induced IL-6 release in NHEK; format: cell-based, human; conditions: 300 µM carvacrol alone, 24 h, not significant
Description: as §1, §2

T1 sequence (O75762 whole entry, species assumed): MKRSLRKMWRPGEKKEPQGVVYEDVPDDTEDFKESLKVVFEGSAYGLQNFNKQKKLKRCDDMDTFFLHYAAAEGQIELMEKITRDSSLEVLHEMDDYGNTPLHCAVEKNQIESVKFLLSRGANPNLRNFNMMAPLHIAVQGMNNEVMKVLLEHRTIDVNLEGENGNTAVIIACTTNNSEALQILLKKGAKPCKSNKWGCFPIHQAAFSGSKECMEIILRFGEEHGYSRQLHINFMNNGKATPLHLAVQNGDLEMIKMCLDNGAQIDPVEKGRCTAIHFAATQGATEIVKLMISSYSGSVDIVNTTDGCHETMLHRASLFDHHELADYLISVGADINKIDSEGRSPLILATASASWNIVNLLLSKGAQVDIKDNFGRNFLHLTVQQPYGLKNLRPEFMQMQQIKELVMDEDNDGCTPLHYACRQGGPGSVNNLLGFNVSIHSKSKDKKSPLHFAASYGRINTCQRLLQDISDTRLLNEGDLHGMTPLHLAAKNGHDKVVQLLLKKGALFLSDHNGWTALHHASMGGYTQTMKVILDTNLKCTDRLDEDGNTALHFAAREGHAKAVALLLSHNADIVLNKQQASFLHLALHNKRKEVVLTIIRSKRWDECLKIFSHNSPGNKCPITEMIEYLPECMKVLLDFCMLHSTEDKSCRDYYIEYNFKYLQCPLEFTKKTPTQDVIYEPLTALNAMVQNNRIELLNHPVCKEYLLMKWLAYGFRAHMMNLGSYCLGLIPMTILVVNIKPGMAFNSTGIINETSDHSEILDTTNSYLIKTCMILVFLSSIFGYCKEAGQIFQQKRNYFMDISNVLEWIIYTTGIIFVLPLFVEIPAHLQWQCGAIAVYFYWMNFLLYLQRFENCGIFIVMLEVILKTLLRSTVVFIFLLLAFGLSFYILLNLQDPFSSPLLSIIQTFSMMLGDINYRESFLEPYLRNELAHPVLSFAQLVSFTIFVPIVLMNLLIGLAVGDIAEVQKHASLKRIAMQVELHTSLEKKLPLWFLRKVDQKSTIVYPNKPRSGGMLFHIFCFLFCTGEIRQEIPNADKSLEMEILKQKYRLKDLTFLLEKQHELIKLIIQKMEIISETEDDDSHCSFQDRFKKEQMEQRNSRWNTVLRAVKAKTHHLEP

| Molecule | IC50 (TRPV3) [µM] | IC50 (TRPV1) [µM] | further results |
| --- | --- | --- | --- |
| C[C@@H]1O[C@@H](O[C@@H]2[C@@H](O)[C@H](OCCc3ccc(O)c(O)c3)O[C@H](CO)[C@H]2OC(=O)/C=C/c2ccc(O)c(O)c2)[C@H](O)[C@H](O)[C@H]1O [Verbascoside] | 14.1 ± 3.3 |  |  |
| O=C(C=Cc1ccc(O)c(O)c1)OC1CC(O)(C(=O)O)CC(O)C1OC(=O)C=Cc1ccc(O)c(O)c1 (stereo not shown) [Isochlorogenic acid B] | 0.9 ± 0.3 |  |  |
| Forsythoside B | 6.7 ± 0.7 |  |  |
| COc1ccc2ccc(=O)oc2c1CC=C(C)C [Coumarin osthole] | 37 ± 1.9 |  |  |
| O=C(/C=C/c1ccc(O)c(O)c1)O[C@@H]1CC(O)(C(=O)O)C[C@@H](OC(=O)/C=C/c2ccc(O)c(O)c2)C1O (stereo partly shown) [Isochlorogenic acid A] | 2.7 ± 1.3 |  |  |
| Pulchranin C | > 200 | 183 ± 27 | IC50 (TRPA1): > 200 µM |
| COc1c(O)cc(O)c2c(=O)c3cccc(O)c3n(C)c12 [Citrusinine II] | 12.4 ± 1.86 |  |  |
| Pulchranin A | 71.8 ± 9.4 | 27.5 ± 1.4 | IC50 (TRPA1): 174 ± 7.4 µM |
| CCC=CC1CCC2(CC3CCC4C(C(=O)OCCCCCCCCCCCCCCCC(=O)N(CCCN)CCCCN)C5(CCCC(C)O5)NC(=[N+]34)N2)O1 (stereo not shown) [Monanchomycalin B] | 3.25 ± 0.6 | 6.02 ± 0.36 | IC50 (TRPV2): 2.84 ± 1.01 µM |
| Cc1ccc(C(C)C)cc1O [carvacrol, reference compound] |  |  | viability at 24 h, 300 µM (TRPV3 (WT)): 75.6%; Effect on TNF-α levels (TNF-α): non-significant effect; Effect on IL-8 release (IL-8): significantly stimulated; Effect on IL-6 secretion (IL-6): slight increase |
